Measurements taken from patent US12077503B2, “Substituted cyclic amides and their use as herbicides” (FMC CORPORATION, priority 2015, dated 2024).

Columns and labels:
Type in all cases: in vivo
[1] = test system: barnyardgrass (Echinochloa crus-galli); assay: Test B flooded paddy test; details: Flood, 250 g ai/ha
Outline: (§1)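 Percent control, visually estimated after 13–15 d in the greenhouse on a 0–100 basis, compares treated pots with untreated ones; compound was put into paddy water 3 cm above the soil when plants had two leaves.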

[2] = test system: rice (Oryra sativa); assay: Test B flooded paddy test; details: Flood, 250 g ai/ha
Outline: as §1

[3] = test system: sedge, umbrella (small-flower umbrella sedge, Cyperus difformis); assay: Test B flooded paddy test; details: Flood, 250 g ai/ha
Outline: as §1

[4] = test system: ducksalad (Heteranthera limosa); assay: Test B flooded paddy test; details: Flood, 250 g ai/ha
Outline: as §1

[5] = test system: ragweed (common ragweed, Ambrosia elatior); assay: Test A preemergence
Outline: (§2)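 Visual injury scores from 0, no effect, to 100, complete control, were assigned versus untreated controls roughly 10 d after treatment in the greenhouse. Test chemicals, formulated with surfactant in a non-phytotoxic solvent, were applied to planted seeds as a preemergence soil spray or postemergence to one- to two-leaf plants 2 to 10 cm tall, in loam–sand soil.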

[6] = test system: barnyardgrass (Echinochloa crus-galli); assay: Test A preemergence
Outline: as §2

[7] = test system: ryegrass, Italian (Italian ryegrass, Lolium multiflorum); assay: Test A preemergence
Outline: as §2

[8] = test system: giant foxtail (Setaria faberii); assay: Test A preemergence
Outline: as §2

[9] = test system: Kochia (Kochia scoparia); assay: Test A preemergence
Outline: as §2

[10] = test system: pigweed (Amaranthus retroflexus); assay: Test A preemergence
[11] = test system: blackgrass (Alopecurus myosuroides); assay: Test A postemergence
Outline: as §2

[12] = test system: ragweed (common ragweed, Ambrosia elatior); assay: Test A postemergence
Outline: as §2

[13] = test system: barnyardgrass (Echinochloa crus-galli); assay: Test A postemergence
Outline: as §2

[14] = test system: ryegrass, Italian (Italian ryegrass, Lolium multiflorum); assay: Test A postemergence
Outline: as §2

[15] = test system: corn (Zea mays); assay: Test A postemergence
Outline: as §2

[16] = test system: giant foxtail (Setaria faberii); assay: Test A postemergence
Outline: as §2

[17] = test system: wheat (Triticum aestivum); assay: Test A postemergence
Outline: as §2

[18] = test system: Kochia (Kochia scoparia); assay: Test A postemergence
Outline: as §2

[19] = test system: pigweed (Amaranthus retroflexus); assay: Test A postemergence
Outline: as §2

[20] = test system: Galium (catchweed bedstraw, Galium aparine); assay: Test A postemergence
Outline: as §2

[21] = 0 to 100 scale where 0 is no effect and 100 is complete control, 13 to 15 d
[22] = 125 g ai/ha, Preemergence, visual injury after approximately 10 d, 0 to 100 scale where 0 is no effect and 100 is complete control
[23] = Preemergence, 500 g ai/ha, visual injury approx. 10 d
[24] = 125 g ai/ha, postemergence, visual injury rating on 0 to 100 scale (0 no effect, 100 complete control), approx. 10 d
[25] = Postemergence, 500 g ai/ha, 0 to 100 scale where 0 is no effect and 100 is complete control

Q: How did the pest or weed control at 250 g/ha ([1]; Echinochloa crus-galli, scale of 0 to 100 where 0 is no effect and 100 is complete control, read-out: Barnyardgrass plant response rating) turn out when `CN1C[C@H](c2cccc(OC(F)(F)C(F)F)c2)[C@@H](C(=O)Nc2ccccc2[S+](C)[O-])C1=O` (some centres unmarked) [Compound 863] was run?
A: 0%

Q: And the pest or weed control at 250 g/ha ([2]; Oryza sativa, scale of 0 to 100 where 0 is no effect and 100 is complete control, read-out: Rice plant response rating)?
A: 0%

Q: And the pest or weed control at 250 g/ha ([3]; Cyperus difformis, scale of 0 to 100 where 0 is no effect and 100 is complete control, read-out: Sedge, Umbrella plant response rating)?
A: 0%

Q: What about the pest or weed control at 250 g/ha ([4]; Heteranthera limosa, scale of 0 to 100 where 0 is no effect and 100 is complete control, read-out: Ducksalad plant response rating) of the same compound?
A: 0%

Q: What about the pest or weed control at 125 g/ha ([5]; Ambrosia artemisiifolia, pre-emergence, 240 h, 125 g ai/ha, preemergence, 0 to 100 scale where 0 is no effect and 100 is complete control, read-out: Ragweed plant response rating) of the same compound?
A: 0%

Q: What about the pest or weed control at 125 g/ha ([6]; Echinochloa crus-galli, pre-emergence, 240 h, 125 g ai/ha, preemergence, 0 to 100 scale where 0 is no effect and 100 is complete control, read-out: Barnyardgrass plant response rating) of the same compound?
A: 50%

Q: And the pest or weed control at 125 g/ha ([7]; Lolium multiflorum, pre-emergence, 240 h, 125 g ai/ha, preemergence, 0 to 100 scale where 0 is no effect and 100 is complete control, read-out: Ryegrass, Italian plant response rating)?
A: 0%

Q: And the pest or weed control at 125 g/ha ([8]; Setaria faberi, pre-emergence, 240 h, 125 g ai/ha, preemergence, 0 to 100 scale where 0 is no effect and 100 is complete control, read-out: Foxtail, Giant plant response rating)?
A: 90%

Q: What about the pest or weed control at 125 g/ha ([9]; Bassia scoparia, pre-emergence, 240 h, 125 g ai/ha, preemergence, 0 to 100 scale where 0 is no effect and 100 is complete control, read-out: Kochia plant response rating) of the same compound?
A: 80%

Q: What about the pest or weed control at 125 g/ha ([10]; Amaranthus retroflexus, pre-emergence, 240 h, 125 g ai/ha, preemergence, 0 to 100 scale where 0 is no effect and 100 is complete control, read-out: Pigweed plant response rating) of the same compound?
A: 70%

Q: And the pest or weed control at 125 g/ha ([11]; Alopecurus myosuroides, post-emergence, 240 h, 125 g ai/ha, postemergence, visual injury rating after approximately 10 d, read-out: Blackgrass plant response rating (0 to 100 scale, 0 no effect, 100 complete control))?
A: 0%

Q: What about the pest or weed control at 125 g/ha ([12]; Ambrosia artemisiifolia, post-emergence, 240 h, 125 g ai/ha, postemergence, visual injury rating after approximately 10 d, read-out: Ragweed plant response rating (0 to 100 scale, 0 no effect, 100 complete control)) of the same compound?
A: 0%

Q: And the pest or weed control at 125 g/ha ([13]; Echinochloa crus-galli, post-emergence, 240 h, 125 g ai/ha, postemergence, visual injury rating after approximately 10 d, read-out: Barnyardgrass plant response rating (0 to 100 scale, 0 no effect, 100 complete control))?
A: 70%

Q: And the pest or weed control at 125 g/ha ([14]; Lolium multiflorum, post-emergence, 240 h, 125 g ai/ha, postemergence, visual injury rating after approximately 10 d, read-out: Ryegrass, Italian plant response rating (0 to 100 scale, 0 no effect, 100 complete control))?
A: 0%

Q: And the plant injury at 125 g/ha ([15]; Zea mays, post-emergence, 240 h, 125 g ai/ha, postemergence, visual injury rating after approximately 10 d, read-out: Corn plant response rating (0 to 100 scale, 0 no effect, 100 complete control))?
A: 30%

Q: What about the pest or weed control at 125 g/ha ([16]; Setaria faberi, post-emergence, 240 h, 125 g ai/ha, postemergence, visual injury rating after approximately 10 d, read-out: Foxtail, Giant plant response rating (0 to 100 scale, 0 no effect, 100 complete control)) of the same compound?
A: 20%

Q: And the plant injury at 125 g/ha ([17]; Triticum aestivum, post-emergence, 240 h, 125 g ai/ha, postemergence, visual injury rating after approximately 10 d, read-out: Wheat plant response rating (0 to 100 scale, 0 no effect, 100 complete control))?
A: 0%

Q: And the pest or weed control at 125 g/ha ([18]; Bassia scoparia, post-emergence, 240 h, 125 g ai/ha, postemergence, visual injury rating after approximately 10 d, read-out: Kochia plant response rating (0 to 100 scale, 0 no effect, 100 complete control))?
A: 40%

Q: And the pest or weed control at 125 g/ha ([19]; Amaranthus retroflexus, post-emergence, 240 h, 125 g ai/ha, postemergence, visual injury rating after approximately 10 d, read-out: Pigweed plant response rating (0 to 100 scale, 0 no effect, 100 complete control))?
A: 50%

Q: And the pest or weed control at 125 g/ha ([20]; Galium, post-emergence, 240 h, 125 g ai/ha, postemergence, visual injury rating after approximately 10 d, read-out: Galium plant response rating (0 to 100 scale, 0 no effect, 100 complete control))?
A: 30%

Q: Which “Plant response rating, Barnyardgrass” value [1, 21] does the source give for `CS(=O)(=O)c1ccccc1NC(=O)C1C(=O)NCC1c1ccc(C2CC2)cc1` (racemic) [Compound 502] here?
A: 0

Q: What about the “Plant response rating, Rice” value [2, 21] of the same compound?
A: 0

Q: What about the “Plant response rating, Sedge, Umbrella” value [3, 21] of the same compound?
A: 0

Q: And the “Plant response rating, Ducksalad” value [4, 21]?
A: 70

Q: And the “Plant response rating, Ragweed” value [5, 22]?
A: 0

Q: What about the “Ragweed plant response rating (0 to 100 scale, 0 is no effect, 100 is complete control)” value [5, 23] of the same compound?
A: 50

Q: And the “Plant response rating, Barnyardgrass” value [6, 22]?
A: 0

Q: And the “Barnyardgrass plant response rating (0 to 100 scale, 0 is no effect, 100 is complete control)” value [6, 23]?
A: 60

Q: And the “Plant response rating, Ryegrass, Italian” value [7, 22]?
A: 0

Q: What about the “Ryegrass, Italian plant response rating (0 to 100 scale, 0 is no effect, 100 is complete control)” value [7, 23] of the same compound?
A: 30

Q: And the “Plant response rating, Foxtail, Giant” value [8, 22]?
A: 80

Q: What about the “Foxtail, Giant plant response rating (0 to 100 scale, 0 is no effect, 100 is complete control)” value [8, 23] of the same compound?
A: 90

Q: What about the “Plant response rating, Kochia” value [9, 22] of the same compound?
A: 0

Q: And the “Kochia plant response rating (0 to 100 scale, 0 is no effect, 100 is complete control)” value [9, 23]?
A: 70

Q: And the “Plant response rating, Pigweed” value [10, 22]?
A: 0

Q: And the “Pigweed plant response rating (0 to 100 scale, 0 is no effect, 100 is complete control)” value [10, 23]?
A: 30

Q: And the “Blackgrass plant response rating” value [11, 24]?
A: 0

Q: What about the “Plant response rating, Blackgrass” value [11, 25] of the same compound?
A: 20

Q: What about the “Ragweed plant response rating” value [12, 24] of the same compound?
A: 0

Q: What about the “Plant response rating, Ragweed” value [12, 25] of the same compound?
A: 0

Q: And the “Barnyardgrass plant response rating” value [13, 24]?
A: 0

Q: What about the “Plant response rating, Barnyardgrass” value [13, 25] of the same compound?
A: 60

Q: And the “Ryegrass, Italian plant response rating” value [14, 24]?
A: 0

Q: What about the “Plant response rating, Ryegrass, Italian” value [14, 25] of the same compound?
A: 30

Q: What about the “Corn plant response rating” value [15, 24] of the same compound?
A: 0

Q: What about the “Plant response rating, Corn” value [15, 25] of the same compound?
A: 30

Q: And the “Foxtail, Giant plant response rating” value [16, 24]?
A: 20

Q: What about the “Plant response rating, Foxtail, Giant” value [16, 25] of the same compound?
A: 50

Q: And the “Wheat plant response rating” value [17, 24]?
A: 0

Q: What about the “Plant response rating, Wheat” value [17, 25] of the same compound?
A: 0

Q: And the “Kochia plant response rating” value [18, 24]?
A: 0

Q: And the “Plant response rating, Kochia” value [18, 25]?
A: 20

Q: And the “Pigweed plant response rating” value [19, 24]?
A: 0

Q: And the “Plant response rating, Pigweed” value [19, 25]?
A: 0

Q: And the “Galium plant response rating” value [20, 24]?
A: 20

Q: What about the “Plant response rating, Galium” value [20, 25] of the same compound?
A: 50
